Structures can show the parent of a compound that is named as a salt. Where two headings read alike, the source gives them in different places.
How the values were obtained:
[1] = Determination of pharmacokinetic parameters following intravenous and oral administration (rats); type: in vivo, male Wistar rats; conditions: intravenous administration in rats
Description: B-6. Determination of Pharmacokinetic Parameters Following Intravenous and Oral Administration
The pharmacokinetic parameters of the compounds according to the invention are determined in male CD-1 mice, male Wistar rats and female beagles. Intravenous administration in the case of mice and rats is carried out by means of a species-specific plasma/DMSO formulation, and in the case of dogs by means of a water/PEG400/ethanol formulation. In all species, oral administration of the dissolved substance is performed via gavage, based on a water/PEG400/ethanol formulation. The taking of blood from rats is simplified by inserting a silicone catheter into the right Vena jugularis externa prior to substance administration. The operation is carried out at least one day prior to the experiment with […] and administration of an analgesic (atropin/Rimadyl (3/1) 0.1 ml s.c.). The blood is taken (generally more than 10 time points) within a time window including terminal time points of at least 24 to a maximum of 72 hours after substance administration. When the blood is taken, it is passed into heparinised tubes. Then the blood plasma is obtained by centrifugation and is optionally stored at −20° C. until further processing.
An internal standard (which may also be a chemically unrelated substance) is added to the samples of the compounds according to the invention, calibration samples and qualifiers, and there follows protein precipitation by means of excess acetone. Addition of a buffer solution matched to the LC conditions, and subsequent vortexing, is followed by centrifugation at 1000 g. The supernatant is analysed by LC-MS/MS using C18 reversed-phase columns and variable mobile phase mixtures. The substances are quantified via the peak heights or areas from extracted ion chromatograms of specific selected ion monitoring experiments.
The plasma concentration/time plots determined are used to calculate the pharmacokinetic parameters such as AUC, Cmax, t1/2 (terminal half life), F (bioavailability), MRT (mean residence time) and CL (clearance), using a validated pharmacokinetic calculation program.
Since the substance quantification is carried out in plasma, it is necessary to determine the blood/plasma distribution of the substance in order to be able to adjust the pharmacokinetic parameters correspondingly. For this purpose, a defined amount of substance is incubated in heparinized whole blood of the species in question in a rocking roller mixture for 20 min. After centrifugation at 1000 g, the plasma concentration is measured (by means of LC-MS/MS; see above) and determined by calculating the ratio of the Cblood/Cplasma value.

[2] = target: T1, recombinant guanylate cyclase reporter cell line (Rattus norvegicus, UniProt P19686+P20595); assay: Action on recombinant guanylate cyclase reporter cell line; type: cell-based; conditions: in some cases mean values from individual determinations
T1 construct: expressed in transfected cells; host or cells: recombinant reporter cell line
T1 sequence (P19686 1-690): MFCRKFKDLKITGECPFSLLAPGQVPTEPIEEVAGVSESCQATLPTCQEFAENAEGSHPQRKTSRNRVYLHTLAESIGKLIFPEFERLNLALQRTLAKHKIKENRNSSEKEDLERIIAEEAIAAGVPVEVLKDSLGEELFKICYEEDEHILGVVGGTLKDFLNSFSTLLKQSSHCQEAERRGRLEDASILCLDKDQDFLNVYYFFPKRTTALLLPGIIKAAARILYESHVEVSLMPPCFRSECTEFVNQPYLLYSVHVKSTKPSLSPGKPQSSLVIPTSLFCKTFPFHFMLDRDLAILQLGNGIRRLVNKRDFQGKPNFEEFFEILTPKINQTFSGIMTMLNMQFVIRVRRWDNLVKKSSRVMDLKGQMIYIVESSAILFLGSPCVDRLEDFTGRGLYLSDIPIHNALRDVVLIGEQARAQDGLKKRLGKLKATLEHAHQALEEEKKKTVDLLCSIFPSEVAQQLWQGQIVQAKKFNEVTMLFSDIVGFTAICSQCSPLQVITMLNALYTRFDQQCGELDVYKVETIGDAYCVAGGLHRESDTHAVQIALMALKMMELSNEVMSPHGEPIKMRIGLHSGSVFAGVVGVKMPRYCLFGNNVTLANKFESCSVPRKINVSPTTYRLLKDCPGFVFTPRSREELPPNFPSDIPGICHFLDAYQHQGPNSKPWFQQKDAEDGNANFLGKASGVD
T1 sequence (P20595 1-619): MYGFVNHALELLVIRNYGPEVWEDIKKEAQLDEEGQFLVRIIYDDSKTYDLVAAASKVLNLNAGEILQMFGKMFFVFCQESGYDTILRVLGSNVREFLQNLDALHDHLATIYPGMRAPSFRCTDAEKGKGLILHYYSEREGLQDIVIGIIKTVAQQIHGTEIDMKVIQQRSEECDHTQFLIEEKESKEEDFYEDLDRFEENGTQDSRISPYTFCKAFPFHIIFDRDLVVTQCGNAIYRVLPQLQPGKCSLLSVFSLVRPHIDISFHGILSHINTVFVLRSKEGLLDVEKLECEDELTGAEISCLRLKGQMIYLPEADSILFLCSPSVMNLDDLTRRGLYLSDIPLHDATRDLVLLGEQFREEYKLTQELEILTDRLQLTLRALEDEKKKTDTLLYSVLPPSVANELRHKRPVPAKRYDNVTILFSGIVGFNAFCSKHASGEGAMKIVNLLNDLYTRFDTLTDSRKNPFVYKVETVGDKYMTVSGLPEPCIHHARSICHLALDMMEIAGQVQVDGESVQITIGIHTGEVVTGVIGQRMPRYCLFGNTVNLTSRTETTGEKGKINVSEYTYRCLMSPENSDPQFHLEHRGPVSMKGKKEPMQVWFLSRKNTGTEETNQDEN
In short: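 Cellular activity was measured in a reporter cell line expressing recombinant guanylate cyclase. Values are given as MEC, the minimal effective concentration, and some are means of individual determinations.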

[3] = male, Wistar, rat, plasma, iv, read-out: MRT

Compound | AUCnorm [1] | CLblood [1] | half-life ([1]; male, Wistar, rat, plasma, iv) | MRT [1, 3] | MEC (minimal effective concentration) [2] | MRT [1] | t1/2 [1]
Cc1nc2c(OCc3c(F)cccc3F)cccn2c1C(=O)NC(CN)CCCC(F)(F)F (racemic) [Example 4, rac-N-(1-amino-6,6,6-trifluorohexan-2-yl)-8-[(2,6-difluorobenzyl)oxy]-2-methylimidazo[1,2-a]pyridine-3-carboxamide] | 0.58 kg·h/L | 27.8 mL/min/kg | 5.2 h | 6.7 h |  |  | 
Cc1cc(OCc2c(F)cccc2F)c2nc(C)c(C(=O)NCC(C)(N)CF)n2c1 (racemic) [Example 282, rac-N-(2-amino-3-fluoro-2-methylpropyl)-8-[(2,6-difluorobenzyl)oxy]-2,6-dimethylimidazo[1,2-a]pyridine-3-carboxamide Formate] | 0.73 kg·h/L | 23.5 mL/min/kg | 4.5 h | 5.7 h | 0.3 µM |  | 
CCCC(C)(N)CNC(=O)c1c(C)nc2c(OCc3cccc(F)c3F)cc(C)cn12 (racemic) [Example 303, rac-N-(2-amino-2-methylpentyl)-8-[(2,3-difluorobenzyl)oxy]-2,6-dimethylimidazo[1,2-a]pyridine-3-carboxamide] | 0.26 kg·h/L | 45.7 mL/min/kg | 5.7 h | 8.2 h | 0.20 µM |  | 
Cc1nc2c(OCc3c(F)cccc3F)cc(Cl)cn2c1C(=O)NCC(N)C(C)C (single isomer, unassigned) [Example 211, ent-N-(2-Amino-3-methylbutyl)-6-chloro-8-[(2,6-difluorobenzyl)oxy]-2-methylimidazo[1,2-a]-pyridine-3-carboxamide] | 0.78 kg·h/L | 17.8 mL/min/kg | 4.8 h | 6.6 h | 0.30 µM |  | 
Cc1cc(OCc2c(F)cccc2F)c2nc(C)c(C(=O)NCC(N)C(C)C)n2c1 (single isomer, unassigned) [Example 223, ent-N-(2-Amino-3-methylbutyl)-8-[(2,6-difluorobenzyl)oxy]-2,6-dimethylimidazo[1,2-a]pyridine-3-carboxamide] | 0.87 kg·h/L | 18.2 mL/min/kg | 4.8 h | 6.1 h | 0.30 µM |  | 
Cc1cc(OCc2c(F)cccc2F)c2nc(C)c(C(=O)NCC(C)(N)CCC(F)(F)F)n2c1 (single isomer, unassigned) [Example 409, ent-N-(2-amino-5,5,5-trifluoro-2-methylpentyl)-8-[(2,6-difluorobenzyl)oxy]-2,6-dimethylimidazo[1,2-a]pyridine-3-carboxamide] | 0.28 kg·h/L | 35.8 mL/min/kg |  |  | 0.03 µM | 7.4 h | 5.8 h
Cc1cc(OCc2c(F)ccc(F)c2F)c2nc(C)c(C(=O)NCC(C)(N)CCC(F)(F)F)n2c1 (single isomer, unassigned) [Example 410, ent-N-(2-amino-5,5,5-trifluoro-2-methylpentyl)-2,6-dimethyl-8-[(2,3,6-trifluorobenzyl)oxy]imidazo[1,2-a]pyridine-3-carboxamide] | 0.21 kg·h/L | 46.2 mL/min/kg | 4.3 h |  | 0.10 µM | 5.4 h | 
CCC(C)(N)CNC(=O)c1c(C)nc2c(OCc3c(F)ccc(F)c3F)cc(C)cn12 (single isomer, unassigned; enantiomer a) [Example 274, ent-N-(2-Amino-2-methylbutyl)-2,6-dimethyl-8-[(2,3,6-trifluorobenzyl)oxy]imidazo[1,2-a]-pyridine-3-carboxamide (Enantiomer A)] | 1.29 kg·h/L | 11.5 mL/min/kg | 5.8 h | 8.4 h | 0.10 µM |  | 

Results, then the molecule that gave them:

AUCnorm [1] | CLblood [1] | half-life ([1]; male, Wistar, rat, plasma, iv) | MRT [1, 3] | MEC (minimal effective concentration) [2] | MRT [1] | t1/2 [1] | Compound
2.06 kg·h/L | 8 mL/min/kg | 16.8 h | 24.4 h | 0.10 µM |  |  | CCC(C)(N)CNC(=O)c1c(C)nc2c(OCc3c(F)cccc3F)cc(Cl)cn12 (single isomer, unassigned) [Example 194, ent-N-(2-Amino-2-methylbutyl)-6-chloro-8-[(2,6-difluorobenzyl)oxy]-2-methylimidazo[1,2-a]-pyridine-3-carboxamide]
0.56 kg·h/L | 20.5 mL/min/kg | 6.6 h | 8.8 h | 0.10 µM |  |  | CCCC(C)(N)CNC(=O)c1c(C)nc2c(OCc3c(F)ccc(F)c3F)cc(C)cn12 (single isomer, unassigned) [Example 295, ent-N-(2-amino-2-methylpentyl)-2,6-dimethyl-8-[(2,3,6-trifluorobenzyl)oxy]imidazo[1,2-a]pyridine-3-carboxamide]
0.34 kg·h/L | 37.8 mL/min/kg |  |  | 0.10 µM | 9.4 h | 6.2 h | CCCC(C)(N)CNC(=O)c1c(C)nc2c(OCc3c(F)ccc(F)c3F)cc(C)cn12 (single isomer, unassigned) [Example 304, ent-N-(2-amino-2-methylpentyl)-2,6-dimethyl-8-[(2,3,6-trifluorobenzyl)oxy]imidazo[1,2-a]pyridine-3-carboxamide]
0.19 kg·h/L | 51.2 mL/min/kg | 3.8 h | 4.7 h | 0.10 µM |  |  | Cc1cc(OCc2c(F)cccc2F)c2nc(C)c(C(=O)NCC(C)(N)CCC(F)(F)F)n2c1 (single isomer, unassigned) [Example 408, ent-N-(2-amino-5,5,5-trifluoro-2-methylpentyl)-8-[(2,6-difluorobenzyl)oxy]-2,6-dimethylimidazo[1,2-a]pyridine-3-carboxamide]
0.41 kg·h/L | 25.3 mL/min/kg |  |  | 0.03 µM | 11.2 h | 8.2 h | Cc1cc(OCc2c(F)ccc(F)c2F)c2nc(C)c(C(=O)NCC(C)(N)CCC(F)(F)F)n2c1 (single isomer, unassigned) [Example 411, ent-N-(2-amino-5,5,5-trifluoro-2-methylpentyl)-2,6-dimethyl-8-[(2,3,6-trifluorobenzyl)oxy]imidazo[1,2-a]pyridine-3-carboxamide]

Reference: patent publication US20150274719A1, “AMINO-SUBSTITUTED IMIDAZO[1,2-A]PYRIDINECARBOXAMIDES AND THEIR USE” (BAYER PHARMA AKTIENGESELLSCHAFT, priority 2012, published 2015)
